{"source": "the supplement of paper PMC11061612", "assay_in_all_cases": "combination Emax (second highest fraction inhibited in the dose matrix, 72 h); higher = more inhibition; extreme values may be limits of the assay", "key": {"RH-41 (Rhabdomyosarcoma)": {"tested_on": "RH-41 (Rhabdomyosarcoma)", "method_in_brief": "(§1)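 After 24 hours at 37°C and 5% CO2 in 1536-well plates, cells in DMEM/F12 or RPMI plus 10% FBS received two-drug dose matrices for 72 hours. Viability came from CellTiter-Glo 2.0 luminescence and was scaled as inhibition, anchored at 0 by vehicle wells and at 1 by blank wells. Combination Emax is taken as the second-highest inhibition in the matrix, and Bliss excess as the observed combination effect less EA + EB − EA·EB, with EA and EB the single-agent effects.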"}, "[1]": {"tested_on": "ESO26 (Esophageal Adenocarcinoma)", "method_in_brief": "as §1"}, "[2]": {"tested_on": "MDA-MB-436 (Breast Carcinoma)", "method_in_brief": "as §1"}, "[3]": {"tested_on": "EPLC-272H (Other Solid Carcinomas)", "method_in_brief": "as §1"}, "5637 (Bladder Carcinoma)": {"tested_on": "5637 (Bladder Carcinoma)", "method_in_brief": "as §1"}, "PEO1 (Ovarian Carcinoma)": {"tested_on": "PEO1 (Ovarian Carcinoma)", "method_in_brief": "as §1"}, "EW-16 (Ewing's Sarcoma)": {"tested_on": "EW-16 (Ewing's Sarcoma)", "method_in_brief": "as §1"}, "COLO-792 (Melanoma)": {"tested_on": "COLO-792 (Melanoma)", "method_in_brief": "as §1"}, "[4]": {"tested_on": "MHH-ES-1 (Ewing's Sarcoma)", "method_in_brief": "as §1"}, "[5]": {"tested_on": "DMS-53 (Small Cell Lung Carcinoma)", "method_in_brief": "as §1"}, "[6]": {"tested_on": "LU-165 (Small Cell Lung Carcinoma)", "method_in_brief": "as §1"}, "[7]": {"tested_on": "LS-411N (Colorectal Carcinoma)", "method_in_brief": "as §1"}, "[8]": {"tested_on": "SW620 (Colorectal Carcinoma)", "method_in_brief": "as §1"}, "[9]": {"tested_on": "HCC1395 (Breast Carcinoma)", "method_in_brief": "as §1"}, "EW-7 (Ewing's Sarcoma)": {"tested_on": "EW-7 (Ewing's Sarcoma)", "method_in_brief": "as §1"}, "EB2 (Burkitt's Lymphoma)": {"tested_on": "EB2 (Burkitt's Lymphoma)", "method_in_brief": "as §1"}, "KP-N-YN (Neuroblastoma)": {"tested_on": "KP-N-YN (Neuroblastoma)", "method_in_brief": "as §1"}, "[10]": {"tested_on": "GA-10 (Burkitt's Lymphoma)", "method_in_brief": "as §1"}, "[11]": {"tested_on": "HT55 (Colorectal Carcinoma)", "method_in_brief": "as §1"}, "[12]": {"tested_on": "HCC1428 (Breast Carcinoma)", "method_in_brief": "as §1"}}}
{"smiles": "Cn1cnc2c(F)c(Nc3ccc(Br)cc3Cl)c(C(=O)NOCCO)cc21", "note": "[Selumetinib] + C[C@@H]1COCCN1C2=NC(=NC(=C2)C3(CC3)[S@](=N)(=O)C)C4=C5C=CNC5=NC=C4 [AZD6738] (first compound max 10 µM, 7x7, partner max 10 µM)", "values": [{"measurement": "combination Emax", "setting": "RH-41 (Rhabdomyosarcoma)", "value": 0.736}, {"measurement": "combination Emax", "setting": "[1]", "value": 0.486}, {"measurement": "combination Emax", "setting": "[2]", "value": 0.243}, {"measurement": "combination Emax", "setting": "[3]", "value": 0.902}, {"measurement": "combination Emax", "setting": "5637 (Bladder Carcinoma)", "value": 0.633}, {"measurement": "combination Emax", "setting": "PEO1 (Ovarian Carcinoma)", "value": 0.441}, {"measurement": "combination Emax", "setting": "EW-16 (Ewing's Sarcoma)", "value": 0.587}, {"measurement": "combination Emax", "setting": "COLO-792 (Melanoma)", "value": 0.589}, {"measurement": "combination Emax", "setting": "[4]", "value": 0.525}, {"measurement": "combination Emax", "setting": "[5]", "value": 0.151}, {"measurement": "combination Emax", "setting": "[6]", "value": 0.304}, {"measurement": "combination Emax", "setting": "[7]", "value": 0.808}, {"measurement": "combination Emax", "setting": "[8]", "value": 0.781}, {"measurement": "combination Emax", "setting": "[9]", "value": 0.571}, {"measurement": "combination Emax", "setting": "EW-7 (Ewing's Sarcoma)", "value": 0.951}, {"measurement": "combination Emax", "setting": "EB2 (Burkitt's Lymphoma)", "value": 0.755}, {"measurement": "combination Emax", "setting": "KP-N-YN (Neuroblastoma)", "value": 0.949}, {"measurement": "combination Emax", "setting": "[10]", "value": 0.977}, {"measurement": "combination Emax", "setting": "[11]", "value": 0.735}, {"measurement": "combination Emax", "setting": "[12]", "value": 0.187}]}
{"smiles": "Cn1cnc2c(F)c(Nc3ccc(Br)cc3Cl)c(C(=O)NOCCO)cc21", "note": "[Selumetinib] + CCN(CCO)CCCOc1ccc2c(Nc3cc(CC(=O)Nc4cccc(F)c4)[nH]n3)ncnc2c1 [AZD2811] (first compound max 10 µM, 7x7, partner max 1 µM)", "values": [{"measurement": "combination Emax", "setting": "RH-41 (Rhabdomyosarcoma)", "value": 0.309}, {"measurement": "combination Emax", "setting": "[1]", "value": 0.212}, {"measurement": "combination Emax", "setting": "[2]", "value": 0.264}, {"measurement": "combination Emax", "setting": "[3]", "value": 0.634}, {"measurement": "combination Emax", "setting": "5637 (Bladder Carcinoma)", "value": 0.81}, {"measurement": "combination Emax", "setting": "PEO1 (Ovarian Carcinoma)", "value": 0.29}, {"measurement": "combination Emax", "setting": "EW-16 (Ewing's Sarcoma)", "value": 0.551}, {"measurement": "combination Emax", "setting": "COLO-792 (Melanoma)", "value": 0.51}, {"measurement": "combination Emax", "setting": "[4]", "value": 0.609}, {"measurement": "combination Emax", "setting": "[5]", "value": 0.158}, {"measurement": "combination Emax", "setting": "[6]", "value": 0.158}, {"measurement": "combination Emax", "setting": "[7]", "value": 0.786}, {"measurement": "combination Emax", "setting": "[8]", "value": 0.863}, {"measurement": "combination Emax", "setting": "[9]", "value": 0.212}, {"measurement": "combination Emax", "setting": "EW-7 (Ewing's Sarcoma)", "value": 0.509}, {"measurement": "combination Emax", "setting": "EB2 (Burkitt's Lymphoma)", "value": 0.182}, {"measurement": "combination Emax", "setting": "KP-N-YN (Neuroblastoma)", "value": 0.581}, {"measurement": "combination Emax", "setting": "[10]", "value": 0.7}, {"measurement": "combination Emax", "setting": "[11]", "value": 0.741}, {"measurement": "combination Emax", "setting": "[12]", "value": 0.297}]}
{"smiles": "NC1(C(=O)N[C@@H](CCO)c2ccc(Cl)cc2)CCN(c2ncnc3[nH]ccc23)CC1", "note": "[Capivasertib] + C[C@@H]1COCCN1C2=NC(=NC(=C2)C3(CC3)[S@](=N)(=O)C)C4=C5C=CNC5=NC=C4 [AZD6738] (first compound max 10 µM, 7x7, partner max 10 µM)", "values": [{"measurement": "combination Emax", "setting": "RH-41 (Rhabdomyosarcoma)", "value": 0.976}, {"measurement": "combination Emax", "setting": "[1]", "value": 0.599}, {"measurement": "combination Emax", "setting": "[2]", "value": 0.372}, {"measurement": "combination Emax", "setting": "[3]", "value": 0.885}, {"measurement": "combination Emax", "setting": "5637 (Bladder Carcinoma)", "value": 0.564}, {"measurement": "combination Emax", "setting": "PEO1 (Ovarian Carcinoma)", "value": 0.616}, {"measurement": "combination Emax", "setting": "EW-16 (Ewing's Sarcoma)", "value": 0.784}, {"measurement": "combination Emax", "setting": "COLO-792 (Melanoma)", "value": 0.549}, {"measurement": "combination Emax", "setting": "[4]", "value": 0.645}, {"measurement": "combination Emax", "setting": "[5]", "value": 0.34}, {"measurement": "combination Emax", "setting": "[6]", "value": 0.657}, {"measurement": "combination Emax", "setting": "[7]", "value": 0.751}, {"measurement": "combination Emax", "setting": "[8]", "value": 0.545}, {"measurement": "combination Emax", "setting": "[9]", "value": 0.581}, {"measurement": "combination Emax", "setting": "EW-7 (Ewing's Sarcoma)", "value": 1}, {"measurement": "combination Emax", "setting": "EB2 (Burkitt's Lymphoma)", "value": 0.831}, {"measurement": "combination Emax", "setting": "KP-N-YN (Neuroblastoma)", "value": 0.962}, {"measurement": "combination Emax", "setting": "[10]", "value": 1}, {"measurement": "combination Emax", "setting": "[11]", "value": 0.545}, {"measurement": "combination Emax", "setting": "[12]", "value": 0.318}]}
{"smiles": "CC1(C)CCC(CN2CCN(c3ccc(C(=O)NS(=O)(=O)c4ccc(NCC5CCOCC5)c([N+](=O)[O-])c4)c(Oc4cnc5[nH]ccc5c4)c3)CC2)=C(c2ccc(Cl)cc2)C1", "note": "[Venetoclax] + C[C@@H](Nc1cc(F)cc(F)c1)c1cc(C(=O)N(C)C)cc2c(=O)cc(N3CCOCC3)oc12 [AZD8186] (first compound max 1 µM, 7x7, partner max 3 µM)", "values": [{"measurement": "combination Emax", "setting": "RH-41 (Rhabdomyosarcoma)", "value": 0.491}, {"measurement": "combination Emax", "setting": "[1]", "value": 0.0996}, {"measurement": "combination Emax", "setting": "[2]", "value": 0.288}, {"measurement": "combination Emax", "setting": "[3]", "value": 0.419}, {"measurement": "combination Emax", "setting": "5637 (Bladder Carcinoma)", "value": 0.141}, {"measurement": "combination Emax", "setting": "PEO1 (Ovarian Carcinoma)", "value": 0.0947}, {"measurement": "combination Emax", "setting": "EW-16 (Ewing's Sarcoma)", "value": 0.17}, {"measurement": "combination Emax", "setting": "COLO-792 (Melanoma)", "value": 0.328}, {"measurement": "combination Emax", "setting": "[4]", "value": 0.191}, {"measurement": "combination Emax", "setting": "[5]", "value": 0.137}, {"measurement": "combination Emax", "setting": "[6]", "value": 0.219}, {"measurement": "combination Emax", "setting": "[7]", "value": 0.343}, {"measurement": "combination Emax", "setting": "[8]", "value": 0.0907}, {"measurement": "combination Emax", "setting": "[9]", "value": 0.701}, {"measurement": "combination Emax", "setting": "EW-7 (Ewing's Sarcoma)", "value": 0.95}, {"measurement": "combination Emax", "setting": "EB2 (Burkitt's Lymphoma)", "value": 0.746}, {"measurement": "combination Emax", "setting": "KP-N-YN (Neuroblastoma)", "value": 0.569}, {"measurement": "combination Emax", "setting": "[10]", "value": 0.617}, {"measurement": "combination Emax", "setting": "[11]", "value": 0.14}, {"measurement": "combination Emax", "setting": "[12]", "value": 0.147}]}
